In paper PMC11410943 (Nature Communications, 2024):
≈ marks a conversion by molar mass, not a printed value. Like-named read-outs stand apart in the source and are kept apart here.

How the values were obtained:
[1] = Hepatocyte stability / intrinsic clearance; format: in vitro ADME, human
[2] = Hepatocyte stability / intrinsic clearance; format: in vitro ADME, dog
CYP3A4 = CYP3A4 (Homo sapiens, UniProt P08684); experiment: CYP reaction phenotyping; format: in vitro ADME
[3] = target: bile salt export pump (BSEP) (Homo sapiens, UniProt O95342); experiment: BSEP inhibition and substrate determination; format: in vitro ADME; settings: up to 50 µM
Sequence of bile salt export pump (BSEP) (O95342 whole entry, species assumed): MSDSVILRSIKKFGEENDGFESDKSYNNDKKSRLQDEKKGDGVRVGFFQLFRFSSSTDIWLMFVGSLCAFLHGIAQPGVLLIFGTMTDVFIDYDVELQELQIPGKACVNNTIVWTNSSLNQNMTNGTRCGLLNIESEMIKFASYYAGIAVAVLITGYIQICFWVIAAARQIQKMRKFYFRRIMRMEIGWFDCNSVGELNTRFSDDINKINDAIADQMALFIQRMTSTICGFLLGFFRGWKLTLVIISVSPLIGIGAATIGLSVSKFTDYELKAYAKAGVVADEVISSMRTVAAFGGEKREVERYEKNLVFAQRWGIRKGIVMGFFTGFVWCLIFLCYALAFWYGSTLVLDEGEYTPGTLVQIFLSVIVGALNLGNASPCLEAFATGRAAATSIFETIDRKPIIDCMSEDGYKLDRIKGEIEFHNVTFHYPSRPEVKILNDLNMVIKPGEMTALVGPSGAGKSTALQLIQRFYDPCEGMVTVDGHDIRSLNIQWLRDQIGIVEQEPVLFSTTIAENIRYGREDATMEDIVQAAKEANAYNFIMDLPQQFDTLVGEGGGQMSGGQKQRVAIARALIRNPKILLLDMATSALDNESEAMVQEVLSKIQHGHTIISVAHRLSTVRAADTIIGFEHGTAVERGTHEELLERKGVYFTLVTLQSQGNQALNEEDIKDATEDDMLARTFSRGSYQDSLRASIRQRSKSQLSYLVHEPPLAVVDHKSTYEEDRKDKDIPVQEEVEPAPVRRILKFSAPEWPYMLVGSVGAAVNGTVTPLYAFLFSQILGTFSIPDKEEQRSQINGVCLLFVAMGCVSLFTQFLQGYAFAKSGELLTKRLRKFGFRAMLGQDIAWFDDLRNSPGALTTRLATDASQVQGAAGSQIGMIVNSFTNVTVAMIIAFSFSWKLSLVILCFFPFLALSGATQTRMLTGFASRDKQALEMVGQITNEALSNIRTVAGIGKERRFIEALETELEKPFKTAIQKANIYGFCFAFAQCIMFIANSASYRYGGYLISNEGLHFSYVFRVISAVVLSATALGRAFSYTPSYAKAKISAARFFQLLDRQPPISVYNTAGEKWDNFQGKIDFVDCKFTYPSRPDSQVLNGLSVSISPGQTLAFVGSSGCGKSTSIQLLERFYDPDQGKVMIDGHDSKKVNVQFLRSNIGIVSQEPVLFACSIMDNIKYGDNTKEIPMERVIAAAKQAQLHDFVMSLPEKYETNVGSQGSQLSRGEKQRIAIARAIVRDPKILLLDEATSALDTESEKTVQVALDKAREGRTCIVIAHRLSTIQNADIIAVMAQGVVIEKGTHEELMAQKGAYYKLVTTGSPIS

[4] = Partitioning into red blood cells; format: in vitro ADME
[5] = Blood-brain barrier crossing
Permeability = format: in vitro ADME
[6] = test system: AChE, MAO-B, Adrenergic α1 A, 5-HT1A; experiment: Cerep-88 secondary pharmacology screen
[7] = IVIVE of clearance in humans; parameters: species or system human
E. coli [8] = experiment: Killing kinetics assay; format: cell-based; settings: 0.5X to 16X MIC, susceptible and MDR strains
A. baumannii [9] = format: cell-based
K. pneumoniae [10] = experiment: Killing kinetics assay; format: cell-based; settings: 0.5X to 16X MIC, susceptible and MDR strains
P. aeruginosa [11] = experiment: Killing kinetics assay; format: cell-based; settings: 0.5X to 16X MIC, susceptible and MDR strains
P. aeruginosa [12] = experiment: Neutropenic mouse; format: in vivo
A. baumannii [13] = experiment: Neutropenic mouse; format: in vivo; settings: SC every 8 h, wild-type and MDR isolates
K. pneumoniae [14] = experiment: Neutropenic mouse; format: in vivo; settings: SC every 8 h, wild-type and MDR isolates
E. coli [15] = experiment: Neutropenic mouse; format: in vivo; settings: SC every 8 h, wild-type and MDR isolates
E. coli [16] = experiment: Neutropenic rat lung infection model; format: in vivo; settings: IV infusion, MDR isolates
[17] = Dog pharmacokinetic study; format: in vivo, Beagle dog; settings: dogs
[18] = First-in-human SAD study, PK; format: in vivo, healthy human volunteers; settings: for half-life: both, human, plasma, iv
[19] = First-in-human SAD study, safety and tolerability; format: in vivo, healthy human volunteers; settings: single IV infusion 120-1050 mg
E. coli [20] = test system: E. coli
A. baumannii [21] = test system: A. baumannii
[22] = test system: diverse Gram-negative pathogens
Escherichia coli = experiment: MIC
Pseudomonas aeruginosa = experiment: MIC; settings: for MIC: Pseudomonas aeruginosa
Klebsiella pneumoniae = experiment: MIC
Acinetobacter baumannii = experiment: MIC; settings: Acinetobacter baumannii
Enterobacter cloacae = experiment: MIC; settings: Enterobacter cloacae
Citrobacter spp. = experiment: MIC; settings: IHMA/CARB-X MDR clinical isolates 2019, N=151
Proteus spp. = experiment: MIC; settings: IHMA/CARB-X MDR clinical isolates 2019, N=152
Serratia marcescens = experiment: MIC; settings: IHMA/CARB-X MDR clinical isolates 2019, N=45
Morganella morganii = experiment: MIC; settings: IHMA/CARB-X MDR clinical isolates 2019, N=42
Neisseria gonorrhoeae = experiment: MIC; settings: IHMA/CARB-X isolates 1997 to 2021, N=90
[23] = test system: Stenotrophomonas maltophilia; experiment: MIC; settings: IHMA/CARB-X MDR clinical isolates 2019, N=150
Enterococcus faecalis = experiment: MIC; settings: read-out: median MIC
E. faecalis / E. faecium = experiment: MIC
P. mirabilis = experiment: MIC; settings: Proteus mirabilis, read-out: median MIC
K. pneumoniae [24] = experiment: Neutropenic rat lung infection model; settings: IV infusion, MDR isolates
[25] = test system: MDR Gram-negative and Gram-positive pathogens; experiment: MIC
[26] = Prediction of human PK by allometry / 2-compartment model; settings: 70 kg
[27] = IHMA/CARB-X MDR clinical isolates 2019, N=300
[28] = read-out: median MIC, panel of ATCC strains

Sequence of CYP3A4 (P08684 whole entry): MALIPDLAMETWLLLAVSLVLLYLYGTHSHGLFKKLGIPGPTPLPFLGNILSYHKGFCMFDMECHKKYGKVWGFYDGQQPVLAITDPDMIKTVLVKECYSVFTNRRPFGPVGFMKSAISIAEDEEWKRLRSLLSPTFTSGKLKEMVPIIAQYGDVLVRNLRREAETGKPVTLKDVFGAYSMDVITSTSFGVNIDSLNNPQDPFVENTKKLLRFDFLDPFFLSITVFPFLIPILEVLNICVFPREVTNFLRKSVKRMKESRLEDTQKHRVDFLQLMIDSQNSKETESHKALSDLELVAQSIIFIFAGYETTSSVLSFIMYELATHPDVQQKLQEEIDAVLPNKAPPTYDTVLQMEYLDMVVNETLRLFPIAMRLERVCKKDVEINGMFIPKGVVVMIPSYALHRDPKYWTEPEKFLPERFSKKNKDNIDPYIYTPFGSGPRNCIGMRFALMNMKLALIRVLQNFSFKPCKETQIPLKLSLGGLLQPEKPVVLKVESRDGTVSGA

For `Cn1c(=O)ccc2ccc(F)c(CCNC[C@H]3CN(c4cnc5c(n4)NC(=O)CO5)C(=O)O3)c21` [BWC0977, 6-[(5S)−5-[[[2-(7-Fluoro-1,2-dihydro-1-methyl-2-oxo-8-quinolinyl)ethyl]amino]methyl]−2-oxo-3-oxazolidinyl]−2H-pyrazino[2,3-b]−1,4-oxazin-3(4H)-one], the “clearance predicted from CLint, % of liver blood flow (LBF)” value [1] was less than 30%, the “clearance predicted from CLint, % of liver blood flow (LBF)” value [2] was less than 30% and the “metabolism by CYP3A4 in reaction phenotyping assay” value (CYP3A4) was 80%. The “BSEP substrate / inhibitor status” value [3] was “neither a substrate nor an inhibitor”, the “partitioning into red blood cells” value [4] was “neither partitions into red blood cells” and the “crossing of the blood-brain barrier” value [5] was “nor crosses the blood-brain barrier”. For the same molecule, the permeability (Permeability) was “low permeability”, the “result in Cerep-88 screen” value [6] was “hits” and the “predicted human plasma CLp” value [7] was 5.5 mL/min/kg. For the same molecule, the “predicted % human LBF” value ([7]; human LBF […]) was 28%, the “in vitro killing kinetics” value (E. coli [8]) was “significant bactericidal activity” and the “in vitro killing kinetics” value (A. baumannii [9]) was “significant bactericidal activity”. The “in vitro killing kinetics” value (K. pneumoniae [10]) was “significant bactericidal activity”, the “in vitro killing kinetics” value (P. aeruginosa [11]) was “significant bactericidal activity” and the “dose-ranging efficacy (bacterial burden)” value (P. aeruginosa [12]; SC every 8 h, wild-type and MDR isolates) was “excellent dose-response”. The “PK-PD driver of efficacy” value (P. aeruginosa [12]; dose fractionation 160 mg/kg/day SC, P. aeruginosa NCTC 13921) was “free area-under-the-curve over MIC (fAUC/MIC) as the efficacy driver”, the “dose-ranging efficacy (bacterial burden)” value (A. baumannii [13]) was “excellent dose-response” and the “dose-ranging efficacy (bacterial burden)” value (K. pneumoniae [14]) was “excellent dose-response”. The “dose-ranging efficacy (bacterial burden)” value (E. coli [15]) was “excellent dose-response”, the dose-response efficacy (E. coli [16]) was “excellent bactericidal dose-response” and the “unchanged drug excreted in urine” value [17] was 10%. For the same molecule, the “VD at steady state (Vss) across the dose levels” value ([18]; 120-1050 mg) was 44.03 to 51.50 L/h, the “dose proportionality of plasma Cmax and AUC” value ([18]; 120-1050 mg) was “increased proportionally with dose” and the half-life ([18]; 120 mg) was 3.3 h. For the same molecule, the half-life ([18]; 1050 mg) was 8.4 h, the tolerability [19] was “generally well tolerated” and the “in vitro resistance frequency” value (E. coli [20]) was < 1 × 10^−9. The resistance frequency (E. coli [20]) was 4 × 10^−9, the “in vitro resistance frequency” value (A. baumannii [21]) was 2.5 × 10^−9 and the resistance frequency (A. baumannii [21]) was 2.5 × 10^−8. The spontaneous resistance frequency [22] was < 10^−9, the MIC (Escherichia coli; Escherichia coli, read-out: median MIC, panel of ATCC strains) was 0.03 µg/mL (≈ 0.064 µM) and the MIC90 (Escherichia coli; [27]) was 0.5 µg/mL (≈ 1.07 µM). The MIC90 (Pseudomonas aeruginosa; [27]) was 1 µg/mL (≈ 2.13 µM), the MIC (Pseudomonas aeruginosa; NCTC13921, P. aeruginosa NCTC 13921) was 0.25 µg/mL (≈ 0.534 µM) and the MIC (Pseudomonas aeruginosa; [28]) was 0.25 µg/mL (≈ 0.534 µM). The MIC90 (Klebsiella pneumoniae; [27]) was 2 µg/mL (≈ 4.27 µM), the MIC (Klebsiella pneumoniae; Klebsiella pneumoniae, read-out: median MIC, panel of ATCC strains) was 0.03 µg/mL (≈ 0.064 µM) and the MIC90 (Acinetobacter baumannii; IHMA/CARB-X MDR clinical isolates 2019, N=298) was 1 µg/mL (≈ 2.13 µM). It also gave an MIC (Acinetobacter baumannii; [28]) of 0.06 µg/mL (≈ 0.128 µM), an MIC90 (Enterobacter cloacae; IHMA/CARB-X MDR clinical isolates 2019, N=152) of 2 µg/mL (≈ 4.27 µM) and an MIC (Enterobacter cloacae; [28]) of 0.06 µg/mL (≈ 0.128 µM). It also gave an MIC90 (Citrobacter spp.) of 1 µg/mL (≈ 2.13 µM), an MIC90 (Proteus spp.) of 0.5 µg/mL (≈ 1.07 µM) and an MIC90 (Serratia marcescens) of 1 µg/mL (≈ 2.13 µM). For the same molecule, the MIC90 (Morganella morganii) was 1 µg/mL (≈ 2.13 µM), the MIC90 (Morganella morganii; Morganella morganii) was 1 µg/mL (≈ 2.13 µM) and the MIC90 (Neisseria gonorrhoeae) was no more than 0.016 µg/mL. For the same molecule, the MIC90 [23] was 0.25 µg/mL (≈ 0.534 µM), the MIC (Enterococcus faecalis) was 0.06 µg/mL (≈ 0.128 µM) and the MIC90 (E. faecalis / E. faecium) was 0.06 µg/mL (≈ 0.128 µM). The MIC (P. mirabilis) was 0.12 µg/mL (≈ 0.256 µM), the dose-response efficacy (K. pneumoniae [24]) was “excellent bactericidal dose-response” and the MIC90 [25] was 0.03 to 2 µg/mL (≈ 0.064 to 4.27 µM). For the same molecule, the “predicted human CL” value [26] was 20.17 L/h, the “predicted human CLD2” value [26] was 1.002 L/h and the “predicted human V1” value [26] was 40.84 L. The “predicted human V2” value [26] was 23.13 L.
